Results: patent US20230295152A1 (SENDA BIOSCIENCES, INC., priority 2019, published 2023)

Key:
[1] = In vivo PK study in male Sprague Dawley rats; details: rats; for C0 / AUC(0-inf) / AUC(0-t) / half-life / Cmax / Tmax / bioavailability: male, Sprague Dawley, rat, plasma; for AUC(0-inf): read-out: AUCInf Mean; for AUC(0-t): read-out: AUCLast Mean; for half-life: read-out: T1/2 Mean (converted); for bioavailability: read-out: Bioavailability
Description: (§1) The studies were conducted in male Sprague Dawley rats, three rats per group, or male CD1 mice, three mice per group. Compounds were dosed 1.0 mg/Kg i.v. (vehicle ethanol: % PEG400 in deionized water, in proportions suitable for dosing a clear solution) and 3.0 mg/kg or 10 mg/kg p.o. (vehicle: 1% methyl cellulose: 1,500 cP in DI water (w/v)). A11 animals had free access to food and water. Rat i.v. PK time points: Plasma: 0.083, 0.25, 0.5, 1, 2, 4, 8 and 24 h; Rat p.o. PK time points: Plasma: 0.25, 0.5, 1, 2, 4, 8 and 24 h. Mouse i.v. PK time points: Plasma: 0.083, 0.25, 0.5, 1, 2, 4, 8, 24, and 48 h; Mouse p.o. PK time points: Plasma: 0.25, 0.5, 1, 2, 4, 8, 24, and 48 h. Concentrations of compound in the plasma samples were analyzed using a LC-MS/MS method. WinNonlin (Phoenix™, version 6.1) or other similar software was used for pharmacokinetic calculations.

[2] = Liver Microsome Stability Assay, human; format: in vitro ADME; details: human liver microsomes
Description: Two separate experiments were performed as follows.
With Cofactors (NADPH): 25 μL of 10 mM NADPH was added to the incubations. The final concentrations of microsomes and NADPH were 0.5 mg/mL and 1 mM, respectively. The final concentration of microsomes was 0.5 mg/mL. The mixture was pre-warmed at 37° C. for 10 minutes. The reaction was started with the addition of 2.5 μL of 100 μM control compound or test compound solutions. Verapamil was used as positive control in this study. The final concentration of test compound or control compound was 1 μM. The incubation solution was incubated in water batch at 37° C. Aliquots of 25 μL were taken from the reaction solution at 0.5, 5, 15, 30 and 60 minutes. The reaction was stopped by the addition of 5 volumes of cold acetonitrile with IS (200 nM caffeine and 100 nM tolbutamide). Samples were centrifuged at 3, 220 g for 40 minutes. Aliquot of 100 μL of the supernatant was mixed with 100 μL of ultra-pure H2O and then used for LC-MS/MS analysis.
Data Analysis: All calculations were carried out using Microsoft Excel. Peak areas were determined from extracted ion chromatograms. The slope value, k, was determined by linear regression of the natural logarithm of the remaining percentage of the parent drug vs. incubation time curve.
The in vitro half-life (in vitro t1/2) was determined from the slope value:
Conversion of the in vitro t1/2 (min) into the in vitro intrinsic clearance (in vitro CLint, in μL/min/mg protein) was done using the following equation (mean of duplicate determinations): […]
The calculations of Scaled-up CLint(mL/min/kg), Predicted CLH (mL/min/kg) and EH were done using the following equation:
Scaled-up CLint=(0.693/t1/2)×(1/(microsomal protein concentration(0.5 mg/mL)))×Scaling Factors;Predicted CLH=(QH×Scaled-up CLint×fub)/(QH+Scaled-up CLint×fub);EH=Predicted CLH/QH
where QH is the hepatic blood flow (mL/min/kg) (Table 32), • fub is the fraction of unbound drug in plasma which is assumed to be 1.
“+++” indicates a Clint value less than 10 mL/min/Kg, […] indicates a Clint between 10 and 20 mL/min/Kg, and “+” indicates a Clint above 20 mL/min/Kg.

[3] = In vivo PK study in male CD1 mice; details: mice; for AUC(0-t): read-out: AUCLast Mean; for half-life: read-out: T1/2 Mean (converted); for bioavailability: read-out: Bioavailability
Description: as §1

[4] = test system: CT26 cells implanted subcutaneously into Balb/c mice; assay: CT26 syngeneic colon cancer model, AhR antagonist with PD-L1 antibody; format: in vivo; details: 3 mg/kg p.o. once a day over 14 days with anti-PD-L1 antibody 10 mg/kg IP every 3 days
[5] = male, CD1, mouse, plasma, 1 mg/kg IV
[6] = male, CD1, mouse, plasma, 10 mg/kg PO

| C0 ([1]; 1 mg/kg IV) [ng/mL] | AUC(0-inf) ([1]; 1 mg/kg IV) [ng·h/mL] | AUC(0-t) ([1]; 1 mg/kg IV) [ng·h/mL] | half-life ([1]; 1 mg/kg IV) [h] | Cmax ([1]; PO, dosage of 3 mg/kg) [ng/mL] | Tmax ([1]; PO, dosage of 3 mg/kg) [h] | AUC(0-t) ([1]; PO, dosage of 3 mg/kg) [ng·h/mL] | bioavailability ([1]; PO, dosage of 3 mg/kg) [%] | CI Mean ([1]; 1 mg/kg IV) [mL/min/kg] | C0 [3, 5] [ng/mL] | AUC(0-t) [3, 5] [ng·h/mL] | half-life [3, 5] [h] | Cmax [3, 6] [ng/mL] | Tmax [3, 6] [h] | AUC(0-t) [3, 6] [ng·h/mL] | bioavailability [3, 6] [%] | CI Mean ([3]; 1 mg/kg IV) [mL/min/kg] | Structure (SMILES) | Human liver microsome clearance [2] | also measured |
| --- | --- | --- | --- | --- | --- | --- | --- | --- | --- | --- | --- | --- | --- | --- | --- | --- | --- | --- | --- |
| 663 | 1220 | 1200 | 1.38 | 508 | 1 | 2270 | 65.9 | 228 |  |  |  |  |  |  |  |  | O=c1c2cc(-c3ccc(C(F)(F)F)nc3)nc(-c3cccnc3)c2ncn1[C@@H]1COC[C@H]1O [Compound 79] |  | AUC(0-inf) ([1]; PO, dosage of 3 mg/kg): 2420 ng·h/mL; half-life ([1]; PO, dosage of 3 mg/kg): 2.53 h |
|  |  |  |  |  |  |  |  |  | 333 | 6770 | 20.7 | 1310 | 6.67 | 45800 | 67.6 | 33.7 | CC(C)(O)Cn1cnc2c(-c3cccnc3)nc(-c3ccc(Cl)cc3)cc2c1=O [Compound 18] | +++ (“+++” indicates a Clint value less than 10 mL/min/Kg) | half-life [3, 6]: 23.4 h |
| 411 | 9520 | 4410 | 27.1 | 592 | 6.67 | 11900 | 90.2 | 29.5 | 412 | 11300 | 55.9 | 2350 | 12 | 96100 | 85 | 11.4 | CC(C)(O)Cn1cnc2c(-c3cccnc3)nc(-c3ccc(C(F)(F)F)cn3)cc2c1=O [Compound 105] |  | half-life [3, 6]: 48.5 h |
|  |  |  |  |  |  |  |  |  |  |  |  |  |  |  |  |  | C[C@@H](CO)n1cnc2c(-c3cccnc3)nc(-c3ccc(C(F)(F)F)cc3)cc2c1=O [Compound 23] | +++ (“+++” indicates a Clint value less than 10 mL/min/Kg) |  |
|  |  |  |  |  |  |  |  |  |  |  |  |  |  |  |  |  | CC(C)(O)Cn1cnc2c(-c3cccnc3)nc(-c3ccc(C(F)(F)F)cc3)cc2c1=O [Compound 16] | +++ (“+++” indicates a Clint value less than 10 mL/min/Kg) |  |
|  |  |  |  |  |  |  |  |  | 601 | 231 | 0.504 | 349 | 0.417 | 497 | 21.6 | 1200 | Cc1ccc(-c2cc3c(=O)n([C@@H](C)CO)cnc3c(-c3cccnc3)n2)cc1 [Compound 17, (S)-3-(1-hydroxypropan-2-yl)-8-(pyridin-3-yl)-6-(p-tolyl)pyrido[3,4-d]pyrimidin-4(3H)-one] | + (“+” indicates a Clint above 20 mL/min/Kg) | AUC(0-inf) ([3]; male, CD1, mouse, plasma, 10 mg/kg PO, read-out: AUCInf Mean): 519 ng·h/mL; half-life [3, 6]: 1.15 h |
|  |  |  |  |  |  |  |  |  |  |  |  |  |  |  |  |  | Cn1cc(-c2nc(-c3ccc(Cl)cc3)cc3c(=O)n(CC(C)(C)O)cnc23)cn1 [Compound 21] | +++ (“+++” indicates a Clint value less than 10 mL/min/Kg) |  |
|  |  |  |  |  |  |  |  |  |  |  |  |  |  |  |  |  | C[C@@H](CO)n1cnc2c(-c3cnn(C)c3)nc(-c3ccc(Cl)cc3)cc2c1=O [Compound 27] | +++ (“+++” indicates a Clint value less than 10 mL/min/Kg) |  |
| 199 | 12300 | 2790 | 63 | 40.2 | 8 | 794 | 9.49 | 26 | 349 | 10400 | 69.5 | 152 | 13.3 | 6060 | 5.82 | 10.7 | Cn1cc(-c2nc(-c3ccc(C(F)(F)F)cn3)cc3c(=O)n(CC(C)(C)O)cnc23)cn1 [Compound 103, 3-(2-hydroxy-2-methylpropyl)-8-(1-methyl-1H-pyrazol-4-yl)-6-(5-(trifluoromethyl)pyridin-2-yl)pyrido[3,4-d]pyrimidin-4(3H)-one] |  |  |
|  |  |  |  |  |  |  |  |  |  |  |  |  |  |  |  |  | C[C@@H](CO)n1cnc2c(-c3cccnc3)nc(-c3ccc(C(F)(F)F)nc3)cc2c1=O [Compound 12] | +++ (“+++” indicates a Clint value less than 10 mL/min/Kg) |  |
|  |  |  |  |  |  |  |  |  |  |  |  |  |  |  |  |  | C[C@@H](CO)n1cnc2c(-c3cccnc3)nc(-c3ccc(OC(F)(F)F)cc3)cc2c1=O [Compound 22] | +++ (“+++” indicates a Clint value less than 10 mL/min/Kg) |  |
|  |  |  |  |  |  |  |  |  |  |  |  |  |  |  |  |  | C[C@H](n1cnc2c(-c3cccnc3)nc(-c3cccnc3)cc2c1=O)C(C)(C)O [Compound 34] | +++ (“+++” indicates a Clint value less than 10 mL/min/Kg) |  |
| 425 | 3050 | 2910 | 5.61 | 152 | 5.33 | 2430 | 27.9 | 91.3 | 350 | 6520 | 11.8 | 1120 | 8 | 29800 | 45.7 | 40.3 | Cn1cc(-c2nc(-c3ccc(C(F)(F)F)nc3)cc3c(=O)n(CC(C)(C)O)cnc23)cn1 [Compound 60] |  |  |
|  |  |  |  |  |  |  |  |  |  |  |  |  |  |  |  |  | C[C@@H](CO)n1cnc2c(-c3cnn(C)c3)nc(-c3ccc(OC(F)(F)F)cc3)cc2c1=O [Compound 25] | +++ (“+++” indicates a Clint value less than 10 mL/min/Kg) |  |

| Structure (SMILES) | C0 ([1]; 1 mg/kg IV) [ng/mL] | AUC(0-inf) ([1]; 1 mg/kg IV) [ng·h/mL] | AUC(0-t) ([1]; 1 mg/kg IV) [ng·h/mL] | half-life ([1]; 1 mg/kg IV) [h] | Cmax ([1]; PO, dosage of 3 mg/kg) [ng/mL] | Tmax ([1]; PO, dosage of 3 mg/kg) [h] | AUC(0-t) ([1]; PO, dosage of 3 mg/kg) [ng·h/mL] | bioavailability ([1]; PO, dosage of 3 mg/kg) [%] | CI Mean ([1]; 1 mg/kg IV) [mL/min/kg] | C0 [3, 5] [ng/mL] | AUC(0-t) [3, 5] [ng·h/mL] | half-life [3, 5] [h] | Cmax [3, 6] [ng/mL] | Tmax [3, 6] [h] | AUC(0-t) [3, 6] [ng·h/mL] | bioavailability [3, 6] [%] | CI Mean ([3]; 1 mg/kg IV) [mL/min/kg] | Human liver microsome clearance [2] | also measured |
| --- | --- | --- | --- | --- | --- | --- | --- | --- | --- | --- | --- | --- | --- | --- | --- | --- | --- | --- | --- |
| C[C@@H](CO)n1cnc2c(-c3cccc(F)c3)nc(-c3ccc(Cl)cc3)cc2c1=O [Compound 7] | 212 | 1000 | 659 | 5.31 | 224 | 3.33 | 2400 | 110 | 295 |  |  |  |  |  |  |  |  | +++ (“+++” indicates a Clint value less than 10 mL/min/Kg) | Cmax ([1]; PO, dosage of 10 mg/kg): 610 ng/mL; Tmax ([1]; PO, dosage of 10 mg/kg): 3.33 h; AUC(0-t) ([1]; PO, dosage of 10 mg/kg): 7820 ng·h/mL; bioavailability ([1]; PO, dosage of 10 mg/kg): 105%; tumor volume, coadministration with PD-L1 antibody ([4]; FIG. 2, p=0.0039 (Mann-Whitney)): reduction in tumor volume; tumor weight upon termination of study, coadministration with PD-L1 antibody ([4]; FIG. 3, p=0.041 (Mann-Whitney)): reduction in tumor weight |
